pIC50: −log10 of the molar value.
Key:
PDE4 (from U937 cells) = test: PDE4 (U937 cell-derived) enzyme assay; assay type: biochemical, human; conditions: 1 μM cAMP
bovine PDE1 = test: PDE1 enzyme assay; assay type: biochemical
human PDE2 = human PDE2 (Homo sapiens, UniProt O00408); test: PDE2 enzyme assay; assay type: biochemical
[1] = molecular target: PDE3 from human platelets (Homo sapiens, UniProt Q14432); test: PDE3 enzyme assay; assay type: biochemical
[2] = molecular target: PDE5 from human platelets (Homo sapiens, UniProt O76074); test: PDE5 enzyme assay; assay type: biochemical
[3] = molecular target: T1, PDE6 from bovine retinal rod outer segments (Bos taurus, UniProt P11541+P23439); test: PDE6 enzyme assay; assay type: biochemical
T1 construct: PDE6 from bovine retinal rod outer segments; from tissue; host or cells: bovine retinal rod outer segments
T1 sequence (P11541 2-856 limits assumed): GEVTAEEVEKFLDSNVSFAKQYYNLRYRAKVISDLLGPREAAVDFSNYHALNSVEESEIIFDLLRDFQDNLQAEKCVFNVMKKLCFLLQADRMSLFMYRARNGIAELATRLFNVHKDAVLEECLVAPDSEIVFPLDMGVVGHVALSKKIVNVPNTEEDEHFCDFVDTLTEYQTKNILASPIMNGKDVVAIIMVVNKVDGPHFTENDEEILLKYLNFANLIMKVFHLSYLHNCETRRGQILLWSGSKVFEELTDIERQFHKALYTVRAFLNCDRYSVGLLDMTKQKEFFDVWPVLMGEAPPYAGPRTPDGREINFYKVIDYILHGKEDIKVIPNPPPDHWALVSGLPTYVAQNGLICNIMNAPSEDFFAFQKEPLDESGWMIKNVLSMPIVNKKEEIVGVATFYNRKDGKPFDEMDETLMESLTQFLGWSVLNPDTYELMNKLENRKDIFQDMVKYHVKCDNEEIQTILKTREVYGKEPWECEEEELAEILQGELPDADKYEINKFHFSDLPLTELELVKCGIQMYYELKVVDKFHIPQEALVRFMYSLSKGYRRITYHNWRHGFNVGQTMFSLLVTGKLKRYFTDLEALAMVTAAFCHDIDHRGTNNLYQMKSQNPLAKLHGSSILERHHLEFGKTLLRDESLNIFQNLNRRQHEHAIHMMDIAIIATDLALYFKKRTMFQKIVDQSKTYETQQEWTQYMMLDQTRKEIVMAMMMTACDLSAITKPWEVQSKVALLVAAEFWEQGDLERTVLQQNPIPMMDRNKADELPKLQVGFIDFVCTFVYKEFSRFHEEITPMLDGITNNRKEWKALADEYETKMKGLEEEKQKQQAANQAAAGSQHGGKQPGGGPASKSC
T1 sequence (P23439 2-850 limits assumed): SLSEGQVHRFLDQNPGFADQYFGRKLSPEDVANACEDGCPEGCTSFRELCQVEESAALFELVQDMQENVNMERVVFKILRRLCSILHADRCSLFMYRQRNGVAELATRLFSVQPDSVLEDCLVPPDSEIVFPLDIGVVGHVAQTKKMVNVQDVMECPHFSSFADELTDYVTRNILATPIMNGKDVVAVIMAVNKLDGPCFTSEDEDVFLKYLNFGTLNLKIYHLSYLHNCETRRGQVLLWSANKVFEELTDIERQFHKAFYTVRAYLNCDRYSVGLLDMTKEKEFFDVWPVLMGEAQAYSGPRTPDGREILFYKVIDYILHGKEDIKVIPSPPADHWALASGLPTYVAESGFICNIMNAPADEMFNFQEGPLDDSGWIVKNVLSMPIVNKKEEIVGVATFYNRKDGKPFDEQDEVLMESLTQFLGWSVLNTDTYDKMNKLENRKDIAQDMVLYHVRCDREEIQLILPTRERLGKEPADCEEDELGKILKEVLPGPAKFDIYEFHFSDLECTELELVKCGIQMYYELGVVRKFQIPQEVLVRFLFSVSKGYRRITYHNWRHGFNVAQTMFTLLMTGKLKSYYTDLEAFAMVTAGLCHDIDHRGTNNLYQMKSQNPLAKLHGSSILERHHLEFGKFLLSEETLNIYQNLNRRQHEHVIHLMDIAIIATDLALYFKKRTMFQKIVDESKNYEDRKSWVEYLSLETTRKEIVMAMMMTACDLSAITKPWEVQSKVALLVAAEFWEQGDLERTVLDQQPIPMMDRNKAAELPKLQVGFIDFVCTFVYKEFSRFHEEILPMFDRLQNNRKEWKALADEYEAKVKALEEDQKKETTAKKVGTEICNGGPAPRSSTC

Chain of PDE3 from human platelets (Q14432 whole entry): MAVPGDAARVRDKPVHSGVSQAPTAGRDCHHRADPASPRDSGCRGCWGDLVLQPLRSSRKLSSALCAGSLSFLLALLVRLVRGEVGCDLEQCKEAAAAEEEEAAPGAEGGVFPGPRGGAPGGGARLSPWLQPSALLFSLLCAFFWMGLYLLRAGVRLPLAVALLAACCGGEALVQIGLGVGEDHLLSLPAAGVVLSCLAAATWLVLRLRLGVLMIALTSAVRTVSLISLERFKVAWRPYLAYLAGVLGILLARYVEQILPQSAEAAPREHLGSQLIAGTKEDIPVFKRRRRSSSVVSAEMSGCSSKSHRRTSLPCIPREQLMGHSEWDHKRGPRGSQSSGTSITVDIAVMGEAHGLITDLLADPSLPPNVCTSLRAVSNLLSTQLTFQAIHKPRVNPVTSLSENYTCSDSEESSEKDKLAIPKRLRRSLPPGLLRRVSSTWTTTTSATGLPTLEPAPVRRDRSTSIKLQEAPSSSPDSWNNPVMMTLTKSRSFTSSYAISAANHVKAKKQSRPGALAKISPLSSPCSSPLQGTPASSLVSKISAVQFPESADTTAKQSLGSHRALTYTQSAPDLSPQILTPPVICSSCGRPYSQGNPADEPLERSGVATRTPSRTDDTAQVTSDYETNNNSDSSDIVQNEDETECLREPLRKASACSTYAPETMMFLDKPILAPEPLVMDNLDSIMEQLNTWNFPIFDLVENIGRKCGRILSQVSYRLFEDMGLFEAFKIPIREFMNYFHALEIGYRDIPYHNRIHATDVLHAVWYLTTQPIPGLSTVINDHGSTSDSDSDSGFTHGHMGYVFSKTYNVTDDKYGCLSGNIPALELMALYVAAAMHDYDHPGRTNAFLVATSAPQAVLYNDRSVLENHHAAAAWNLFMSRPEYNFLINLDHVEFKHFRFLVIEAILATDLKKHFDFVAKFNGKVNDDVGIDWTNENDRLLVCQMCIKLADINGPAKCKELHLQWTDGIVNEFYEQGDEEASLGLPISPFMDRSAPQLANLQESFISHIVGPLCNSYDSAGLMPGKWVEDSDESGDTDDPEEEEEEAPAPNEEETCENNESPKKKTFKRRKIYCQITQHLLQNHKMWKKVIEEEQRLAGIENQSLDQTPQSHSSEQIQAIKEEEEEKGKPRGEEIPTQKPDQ
Chain of human PDE2 (O00408 whole entry): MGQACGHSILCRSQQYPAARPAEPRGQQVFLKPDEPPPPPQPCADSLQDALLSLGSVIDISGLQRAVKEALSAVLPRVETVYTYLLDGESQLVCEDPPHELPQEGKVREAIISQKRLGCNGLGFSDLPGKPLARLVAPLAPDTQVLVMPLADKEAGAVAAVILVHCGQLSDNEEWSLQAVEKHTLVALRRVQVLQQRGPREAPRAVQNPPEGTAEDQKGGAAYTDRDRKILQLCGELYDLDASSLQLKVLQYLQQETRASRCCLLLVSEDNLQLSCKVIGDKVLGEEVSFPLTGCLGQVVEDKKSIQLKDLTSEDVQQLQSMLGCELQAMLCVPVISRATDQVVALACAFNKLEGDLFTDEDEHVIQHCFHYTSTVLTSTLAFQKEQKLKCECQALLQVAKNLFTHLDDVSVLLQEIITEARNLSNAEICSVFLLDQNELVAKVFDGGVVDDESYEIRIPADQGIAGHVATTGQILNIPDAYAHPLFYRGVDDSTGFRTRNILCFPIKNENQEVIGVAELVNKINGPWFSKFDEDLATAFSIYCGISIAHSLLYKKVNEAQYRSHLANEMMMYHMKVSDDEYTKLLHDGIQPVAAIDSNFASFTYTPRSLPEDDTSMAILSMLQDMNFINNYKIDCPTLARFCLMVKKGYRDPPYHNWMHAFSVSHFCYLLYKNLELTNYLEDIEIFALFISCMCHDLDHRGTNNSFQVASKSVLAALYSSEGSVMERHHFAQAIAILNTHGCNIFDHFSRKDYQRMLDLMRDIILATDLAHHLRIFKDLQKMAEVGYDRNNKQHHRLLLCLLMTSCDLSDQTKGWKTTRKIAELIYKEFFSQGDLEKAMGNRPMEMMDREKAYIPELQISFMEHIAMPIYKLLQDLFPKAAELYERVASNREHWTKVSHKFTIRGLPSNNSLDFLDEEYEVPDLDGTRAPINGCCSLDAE

- pIC50 (PDE4 (from U937 cells)): 6.21
- PDE1 (% inhib at 10 μM) (bovine PDE1; 10 μM): 27%
- PDE Specificity Ratio PDE4/PDE1 (bovine PDE1; from Table 1 data): >50 fold
- PDE2 (% inhib at 10 μM) (human PDE2; 10 μM): 10%
- PDE Specificity Ratio PDE4/PDE2 (human PDE2; from Table 1 data): >260 fold
- PDE3 (% inhib at 10 μM) ([1]; 10 μM): 31%
- PDE Specificity Ratio PDE4/PDE3 ([1]; from Table 1 data): >45 fold
- PDE5 (% inhib at 10 μM) ([2]; 10 μM): −9%
- PDE Specificity Ratio PDE4/PDE5 ([2]; from Table 1 data): >39000 fold
- PDE6 (% inhib at 10 μM) ([3]; 10 μM): 10%
- PDE Specificity Ratio PDE4/PDE6 ([3]; from Table 1 data): >250 fold
Compound: CCOc1cc([C@H](CS(C)(=O)=O)N2C(=O)c3cccc(NC(C)=O)c3C2=O)ccc1OC [Compound B]
